Columns and labels:
BBB leakage = experiment: BBB disruption by Evans blue extravasation in CCI rat model of TBI; type: in vivo, Sprague Dawley rats; conditions: 24 hr after TBI; GSNO 0.05 mg/kg i.v. or FeTPPS 3 mg/kg i.v. right after impact
From the text: (§1) All animals used in this study received humane care in compliance with the Medical University of South Carolina's (MUSC) guidance and the National Research Council's criteria for humane care. Animal procedures were approved by the institutional animal care and use committee of MUSC (AR #2703). For generation of CCI model of TBI, young adult male (˜3-4 months old) Sprague Dawley rats weighing between 260-300 g were randomly divided into four groups: 1) TBI animals treated with vehicle (TBI; n=13), 2) TBI with GSNO (0.05 mg/kg body weight/i.v.) treatment (TBI+GSNO; n=13), 3) TBI with FeTPPS (3 mg/kg body weight, i.v.) treatment (TBI+FeTPPS; n=13), 4) sham-operated treated with vehicle (Sham; n=13). The group size was determined by power analysis based on our previous data (Khan et al., 2016b; Khan et al., 2009). Ketamine (90 mg/kg body weight) and xylazine (10 mg/kg body weight) as surgical anesthesia were administered intraperitoneally. Analgesic buprenorphine was administered pre-emptively to alleviate pain following surgery. […]
BBB leakage was assessed as previously described from our laboratory (Khan et al., 2016b; Khan et al., 2009). […] The brain tissues were homogenized in 750 μl of N, N-dimethylformamide (DMF) and centrifuged at 10,000×g for 25 minutes, and EB content in supernatant was fluorimetrically analyzed (λex 620 nm, λem 680 nm).

myelin = experiment: Spinal cord demyelination (MBP staining and Western) in EAE mice; type: in vivo, C57BL/6J mice; conditions: GSNO 1 mg/kg/day or FeTPPS 30 mg/kg/day i.p.
Procedure: Western immunoblot analysis was performed by standard method using 50 μg of cell lysates. Following the SDS-PAGE electrophoresis, proteins were transferred from the gel onto the Polyvinylidene fluoride membrane (GE Healthcare Life Sciences, Marlborough, Mass.). […]
EAE was induced as described previously (Nath et al., 2009). […] The group size was determined by power analysis based on our previous data (Nadi et al., 2009). […] Clinical signs of EAE were scored in animal facility in a blinded fashion to experimenter between 2 and 4 pm daily by examiners blinded to experimental treatments using the following scale: 0=no clinical signs of disease; 1=limp tail or waddling gait with tail tonicity; 2=waddling gait with limp tail (ataxia); 2.5=ataxia with partial limb paralysis; 3=full paralysis of one limb; 3.5=full paralysis of one limb with partial paralysis of second limb; 4=full paralysis of two limbs; 4.5=moribund stage; 5=death. […]
Animals were anesthetized and fixed with cardiac perfusion of 4% paraformaldehyde (Nath et al., 2004). […] To assess the status of myelin, the sections were stained with antibody specific to MBP and detected with secondary antibody conjugated with immunofluorescent analysis. […]

[1] = Edema (brain water content) in CCI rat model of TBI; type: in vivo, Sprague Dawley rats; conditions: 24 hr after TBI; GSNO 0.05 mg/kg i.v. or FeTPPS 3 mg/kg i.v.
From the text: as §1
At 24 h following CCI, animals were euthanized to determine brain water content (edema) as described earlier (Hoda et al., 2009; Khan et al., 2009). […] Each hemisphere was dried at 60° C. for 72 hours, and the dry weight was determined. Water content was calculated in ipsilateral hemisphere as: water content (%)=(wet weight−dry weight)/wet weight×100.

Row | SMILES | TBI-induced increase in Evan's blue extravasation (BBB leakage) | protection of myelin in the spinal cord (myelin) | TBI-induced increase in brain water content [1]
1 | Cl.O=S(=O)([O-])c1ccc(-c2c3nc(c(-c4ccc(S(=O)(=O)O)cc4)c4ccc([nH]4)c(-c4ccc(S(=O)(=O)O)cc4)c4nc(c(-c5ccc(S(=O)(=O)O)cc5)c5ccc2[nH]5)C=C4)C=C3)cc1.[Fe] [FeTPPS, 5,10,15,20-Tetrakis(4-sulfonatophenyl)porphyrinato Iron (III), Cl, reference compound] | reduced | protected myelin | reduced
2 | N[C@@H](CCC(=O)N[C@@H](CSN=O)C(=O)NCC(=O)O)C(=O)O [GSNO, S-nitrosoglutathione] | reduced | protected myelin | reduced

From patent US10925858B2, “S-nitrosoglutathione (GSNO) and GSNO reductase inhibitors for use in therapy” (MUSC FOUNDATION FOR RESEARCH DEVELOPMENT, priority 2017, dated 2021)
